Measured values from patent publication US20150246137A1, “LIPID COATED NANOPARTICLES CONTAINING AGENTS HAVING LOW AQUEOUS AND LIPID SOLUBILITIES AND METHODS THEREOF” (THE UNIVERSITY OF NORTH CAROLINA AT CHAPEL HILL, priority 2012, published 2015).
pIC50: −log10 of the molar value. Entries after “also recorded” stand apart in the source; their conditions may differ.

Columns and labels:
[1] = tested on: H460 cells; assay: In vitro cell viability assay (MTT); assay type: cell-based, human; conditions: NCI-H460, 36 h
Method: In vitro cell viability of IEP nanoparticles was determined by using the 3-[4,5-dimethylthiazol-2-yl]-2,5-diphenyltetrazolium bromide (MTT) assay. H460 cells were seeded at a density of 1×10^4 per well in96-well plates 24 hours prior to treatment. The cells were treated with different concentrations of IEP-PEG, IEP-PEG AA, free Indium chloride, free outer liposome and free etoposide phosphate for 36 h. The concentrations of indium chloride and free liposomes were maintained in equal mounts used for IEP-PEG and IEP-PEG AA. The medium was replaced with fresh medium containing 5% MTT (Biosynth Inc.) solution and incubated at 37° C. for another 4 h. The resulting formazan crystals were solubilized by adding 100 μL DMSO/Methanol (50:50) solution to each well. The absorbance at 570 nm wavelength was measured with a micro plate reader. Cell viability was calculated as the percentage of the absorbance of the treated cells to that of untreated cells.

[2] = tested on: caspase-3/7; assay: Caspase activation assay; assay type: cell-based, human; conditions: NCI H-460 cells, 24 h
Method: H460 cells (2×10^5) were treated as mentioned above with all formulations. The cells were lysed with a radio-immunoprecipitation assay (RIPA) buffer that was supplemented with a protease inhibitor cocktail (Promega, Madison, Wis.). The protein lysates were collected by centrifugation at 14,000 rpm for 10 min at 4° C. Protein concentrations were determined using the BCA assay kit (Pierce Biotechnology) following the manufacturer's recommendations. Thirty micrograms protein of each sample was used to detect caspase-3/7 activity of the cell lysates by using an in vitro assay kit according to the manufacturer's instructions (Promega).

[3] = tested on: PARP-1; assay: Western blot analysis for PARP; assay type: cell-based, human; conditions: H460 cells
Method: Forty micrograms of protein per lane was resolved by 4%-12% SDS-PAG Electrophoresis (Invitrogen) before being transferred to polyvinylidenedifluoride (PVDF) membranes (Bio-Rad). The membranes were blocked for 1 h with 5% skim milk at room temperature and then incubated with mouse monoclonal poly (ADPribose) polymerase-1 (PARP-1) antibodies (1:500 dilution; Santa Cruz biotechnology, Inc.) and with β-actin antibody (1:4000 dilution; Santa Cruz biotechnology, Inc.) overnight at 4° C. β-actin was probed as the loading control. The membranes were washed 3 times and then incubated with a secondary antibody (1:4000 dilutions; Santa Cruz biotechnology, Inc.) at room temperature for 1 h. Goat anti-mouse secondary antibody is used for PARP and β-actin primary antibody. Finally, the membranes were washed 4 times and developed by an enhanced chemiluminescence system according to the manufacturer's instructions (Thermo scientific).

[4] = tested on: H460 cells; assay: Cell cycle analysis (flow cytometry); assay type: cell-based, human; conditions: H460, 24 h
Method: H460 cells (2×10^5) were seeded in 6-well plates 24 h prior to the treatment. The formulations, IEP-PEG, IEP-PEG AA, InCl3, free liposome and free drug were added and incubated for 24 h at 37° C., humidified CO2 incubator. The cells were trypsinized and washed with PBS followed by fixation in pre-cooled 70% ethanol at −20° C. for at least 1 h. Fixed cells were washed with PBS staining buffer (BD Pharmingen, San Diego, Calif.) and incubated with RNAase (final concentration […]) at 37° C. for 30 min, followed by incubation with […] propidium iodide (PI) at room temperature for 30 min. Finally, cells were washed and suspended in PBS, and analyzed with a FACS Canto flow cytometer (BD Biosciences) to measure the PI intensity, which correlates with the DNA content in the cell cycle. A total of 20,000 events are acquired for each sample and data were analyzed with FACS Diva software (BD Biosciences).

[5] = tested on: H460 subcutaneous xenograft; assay: Tumor growth inhibition study, H460 xenograft; assay type: in vivo, mice; conditions: IV every other day, EP 5 mg/kg
Method: A tumor growth inhibition study was completed on H460 subcutaneous xenograft mouse models. Mice were inoculated with 5×10^6 […] by subcutaneous injection. Treatment was started when the tumor volumes reached about 100-150mm^3. The mice were randomly assigned into treatment groups (n=5), and intravenously injected different formulations, including […] and free EP. Four injections were performed every other day for a total of 4 injections at an EP dose of 5 mg/kg. Tumor sizes were measured every other day with calipers across their two perpendicular diameters, and the tumor volume was calculated using the following formula: […] Body weight of each mouse is recorded every other day. Humane sacrifice of mice was performed when tumors reached 20 mm in one dimension.

[6] = tested on: H460 tumor; assay: TUNEL and PCNA immunohistochemistry in H460 tumors; assay type: in vivo, mice; conditions: three daily IV injections, 5 mg/kg
Method: In vivo tumor cell apoptosis was determined by TdT-mediated dUTP Nick-End Labeling (TUNEL) assay. […] Twenty-four hours after the final injection, mice were sacrificed and tumors are fixed in 4% paraformaldehyde solution for 12 h before being embedded in paraffin and sectioned at a thickness of 5 μm. The TUNEL staining was performed as recommended by the manufacturer (Promega). DAPI mounting medium (Vector Laboratories, Inc., Burlingame, Calif.) was dropped on the sections for nucleus staining. Images of TUNEL-stained tumor sections were captured with a fluorescence microscope (Nikon Corp., Tokyo, Japan). The percentage of apoptotic cells was obtained by dividing the number of apoptotic cells(TUNEL positive cells shown as green dots) from the number of total cells(blue nuclei stained by DAPI, not shown) in each microscopic field, and 10 representative microscopic fields were randomly selected in each treatment group for this analysis. Proliferation of tumor cells after the aforementioned treatments and dosing schedule was detected by immunohistochemistry, using an antibody against proliferating cell nuclear antigen (PCNA) (1:200 dilution, Santa Cruz). The immunohistochemistry was performed using a mouse-specific HRP/DAB detection IHC kit as recommended by the manufacturer (Abcam, Cambridge, Mass.). […]

[7] = tested on: A375M cells; assay: Cell toxicity assay (MTS); assay type: cell-based, human; conditions: 48 h, read-out: IC50, growth inhibition
Method: (§1) A375M cells were seeded in 96-well plates at a density of 2000 cells/well and incubated in 10% FBS of DMEM containing 100 U/mL penicillin and […] streptomycin for 20 h. The medium was removed and replaced by Opti-MEM containing CDDP or LPC NPs. Forty-eight hours later, a CellTiter 96 AQueous One Solution Cell Proliferation Assay (Promega, Madison, Wis.) kit containing the tetrazolium compound MTS was used to assay cell viability according to the manufacturer's protocols. The IC50 values were calculated using Graphpad Prism 5 (Graphpad Software Inc.)

[8] = tested on: 1205Lu cells; assay: Cell toxicity assay (MTS); assay type: cell-based, human; conditions: 48 h
Method: as §1, with “1205Lu” for “A375M”, “penicillin,” for “penicillin”, “Then, the” for “The”, “protocols.” for “protocols. The IC50 values were calculated using Graphpad Prism 5 (Graphpad Software Inc.)”

[9] = Biodistribution of Pt in A375M tumor-bearing mice; assay type: in vivo; conditions: twenty-four hours post-IV injection, 1.0 mg/kg Pt
Method: […] Tissue samples were digested by concentrated nitric acid overnight at room temperature and processed according to the procedure reported previously the literature.119, 120 The concentration of Pt was measured using ICP-MS.

[10] = tested on: A375M melanoma xenograft tumors; assay: In vivo anticancer efficacy, A375M xenograft; parameters: species or system nude mice; conditions: weekly IV, 1.0 mg/kg Pt
Method: All procedures involving experimental mice are performed in accordance with the protocols conformed to the Guide for the Care and Use of Laboratory Animals (NIH publication No. 86-23, revised 1985). Female athymic nude mice, 5-6 weeks old and weighing 18-22 g were obtained. 5×10^6 A375M cells were injected subcutaneously into the mice. After 10 days, the mice were randomly divided into four groups (4-6 mice per group). The mice were treated with weekly IV injections of CDDP and LPC NPs and saline as a control. A dose of 1.0 mg/kg Pt was administered. Thereafter, tumor growth and body weight were monitored. Tumor volume was calculated using the following formula: TV=(L×W^2)/2, with W being smaller than L. Finally, mice were sacrificed using a CO2 inhalation method.
After the therapeutic experiment was complete, blood samples were collected and allowed to clot for 2 h at room temperature. […] For liver and renal function experiments, the levels of aspartate aminotransferase, alanine aminotransferase, and blood urea nitrogen in the serum were measured. […]
The tumors were fixed in 4.0% paraformaldehyde (PFA), paraffin-embedded, and sectioned. […] TUNEL-positive nuclei were monitored by using a fluorescence microscope (Nikon, Tokyo, Japan). […] TUNEL-positive cells in three slides of images taken at 40× magnification were counted to quantify apoptosis.

[11] = tested on: 1205Lu xenograft tumors; assay: In vivo anticancer efficacy, 1205Lu xenograft; parameters: species or system nude mice; conditions: 2.0 mg/kg Pt
Method: Female athymic nude mice, 5-6 weeks old and weighing 18-22 g were obtained. 1205Lu xenograft tumors were developed through subcutaneous injection of approximately 5 million 1205Lu cells in female nude mice. […] Tumor growth and body weight were monitored. Tumor volume was calculated using the following formula: TV=(L×W^2)/2, with W being smaller than L. Finally, mice were sacrificed by CO2 inhalation. Tumors were collected after treatment and were formalin fixed and processed for TUNEL assay.
The tumors were fixed in 4.0% paraformaldehyde (PFA) and subsequently paraffin-embedded and sectioned. To detect apoptotic cells in tumor tissues, a TUNEL assay, using a DeadEnd™ Fluorometric TUNEL System (Promega, Madison, Wis.), was performed, following the manufacturer's protocol. Cell nuclei, which were stained with green fluorescence, are defined as TUNEL-positive nuclei. TUNEL-positive nuclei were monitored using a fluorescence microscope (Nikon, Tokyo, Japan). The cell nuclei were stained with 4, 6-diaminidino-2-phenyl-indole (DAPI) (Vectashield, Vector Laboratories, Inc., Burlingame, Calif.). To quantify TUNEL-positive cells, green-fluorescence-positive cells are counted in three images taken at 40× magnification.

[12] = tested on: A375M cells; assay: In vitro neighboring effect study (co-culture, Annexin V); assay type: cell-based, human; conditions: 48 h co-culture 1:10, A375M-GFP pretreated 50 μM Pt 4 h
Method: A375M-GFP cells (2×10^5) were seeded in 6-well plates (Corning Inc., Corning, N.Y.) 20 h before the beginning of the experiments. […] The A375M-GFP cells were mixed with A375M cells at the ratio of 1:10 (total cell number: 2×10^5) and reseeded into 6-well plates. After culturing for 48 h, the cells were stained with Hoechst 33342 (Sigma, St Louis, Mo.) and Annexin V Alexa Fluor® 568 Conjugate (Invitrogen, Carlsbad, Calif.). […] Results were processed using the Cellquest software (Becton-Dickinson).

[13] = Kidney and liver function parameters; assay type: in vivo, mice
From the text: To evaluate the kidney toxicity, organs were taken for histopathological observation using H&E staining. […] We also did a pathologic examination by H&E staining of other major organs (liver, lung, spleen and heart) from mice that received long-term treatments (not shown). […] Finally, we tested the blood parameters. Levels of secreted liver enzymes (AST and ALT), and blood urea nitrogen were all unchanged after a four-dose treatment with LPC or LPI, indicating a lack of damage to the liver and the kidneys (Table 2).
After the therapeutic experiment was complete, blood samples were collected and allowed to clot for 2 h at room temperature. Serum was obtained through centrifugation for 20 min at 2,000 g. For liver and renal function experiments, the levels of aspartate aminotransferase, alanine aminotransferase, and blood urea nitrogen in the serum were measured. Major organs were collected after treatment and were formalin fixed and processed for routine H&E staining using standard methods. Images were collected using a Nikon light microscope (Nikon). After the A375M tumor reached 600 mm^3, the mice were treated with two weekly IV injections of LPC NPs at a dose of 3.0 mg/kg Pt. Seven days post the last injection, the mice were sacrificed and the tumors are assayed with TUNEL.

[14] = H&E histopathology of organs; assay type: in vivo, mice; conditions: long-term treatments

SMILES | cell viability / toxicity (MTT) [1] | caspases 3 and 7 activity relative to untreated control [2] | increase in the 89 kDa PARP-1 cleavage product [3] | cells at G2/M phase [4] | tumor growth [5] | PCNA positive cells in tumor sections [6] | pIC50 [7] | pIC50 [8] | accumulation in the tumors [9] | tumor growth [10] | apoptosis in tumor (TUNEL) [11] | tumor growth ([11]; weekly IV) | apoptotic cells in the untreated cell population [12] | AST and ALT functional parameters ([13]; A375M study, FIG. 33) | ALT ([13]; four-dose treatment, mean ± SD) | AST ([13]; four-dose treatment, mean ± SD) | BUN ([13]; four-dose treatment, mean ± SD) | damage of other major organs (H&E) [14]
[Cl-].[Cl-].[Cl-].[In+3] [Indium chloride] | no effect on viability | no effect | no effect | no discernable effect | – | – | – | – | – | – | – | – | – | – | – | – | – | –
COc1cc([C@@H]2c3cc4c(cc3[C@@H](O[C@@H]3O[C@@H]5CO[C@@H](C)O[C@H]5[C@H](O)[C@H]3O)[C@H]3COC(=O)[C@H]23)OCO4)cc(OC)c1OP(=O)(O)O [EP, Etoposide phosphate] | dose-dependent toxicity | 4 fold | readily detectable | About 50% | minimal impact on tumor growth | 75-80% | – | – | – | – | – | – | – | – | – | – | – | –
N.N.[Cl][Pt][Cl] [CDDP, cis-diaminedichloroplatinum(II)] | – | – | – | – | – | – | 4.99 | 4.91 | 1.2 % of the injected dose per gram | ineffective; also recorded: not effective at all | 6.3% | partial effect | less than 6% | fall within the normal range | 54.3 ± 9.7 U/L | 105.7 ± 27.1 U/L | 25.7 ± 0.6 mg/dL | no toxicities in heart and lung
